T/C data for 17 molecules are collected here from PubChem BioAssay AID248 (DTP/NCI, 2004).

In this assay the test system is L1210 leukemia ip in BDF1 mice, survival T/C. Put plainly: NCI In Vivo Anticancer Drug Screen. Data for tumor model L1210 Leukemia (intraperitoneal) in B6D2F1 (BDF1) mice. Particulars: endpoint: mean survival time, higher = longer survival. The essentials:
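Antitumor effect is assessed in tumor-bearing animals. Survival in the compound arm is compared with a vehicle-dosed control arm and expressed as their quotient.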

Setting [1] is: dose: 100.0 mg/kg/injection, schedule: Q01DX009 (ip), vehicle: Klucel (hydroxypropylcellulose) (HPC).
Setting [2] is: dose: 100.0 mg/kg/injection, schedule: Q04DX002 (ip), vehicle: Klucel (hydroxypropylcellulose) (HPC).
The mark [3] stands for this setting: dose: 200.0 mg/kg/injection, schedule: Q01DX009 (ip), vehicle: Klucel (hydroxypropylcellulose) (HPC).
Where [4] appears, read: dose: 200.0 mg/kg/injection, schedule: Q04DX002 (ip), vehicle: Klucel (hydroxypropylcellulose) (HPC).
Setting [5] is: dose: 400.0 mg/kg/injection, schedule: Q01DX009 (ip), vehicle: Klucel (hydroxypropylcellulose) (HPC).
The mark [6] stands for this setting: dose: 400.0 mg/kg/injection, schedule: Q04DX002 (ip), vehicle: Klucel (hydroxypropylcellulose) (HPC).
Where [7] appears, read: dose: 100.0 mg/kg/injection, schedule: Q01DX001 (ip), vehicle: carboxymethylcellulose (CMC).
Setting [8] is: dose: 200.0 mg/kg/injection, schedule: Q01DX001 (ip), vehicle: carboxymethylcellulose (CMC).
Setting [9] is: dose: 75.0 mg/kg/injection, schedule: Q01DX001 (ip), vehicle: carboxymethylcellulose (CMC).
[10] abbreviates: dose: 150.0 mg/kg/injection, schedule: Q01DX001 (ip), vehicle: carboxymethylcellulose (CMC).
Where [11] appears, read: dose: 300.0 mg/kg/injection, schedule: Q01DX001 (ip), vehicle: carboxymethylcellulose (CMC).
Where [12] appears, read: dose: 100.0 mg/kg/injection, schedule: Q01DX001 (ip), vehicle: saline.
The mark [13] stands for this setting: dose: 200.0 mg/kg/injection, schedule: Q01DX001 (ip), vehicle: saline.
Setting [14] is: dose: 400.0 mg/kg/injection, schedule: Q01DX001 (ip), vehicle: saline.

Where “and” joins values, the source holds several entries; their conditions need not be identical. Identical values can stand only once. Inconclusive results and toxic doses are left out.

For the molecule `CC(=O)Nc1ccc(/C=C/c2ccc([N+](=O)[O-])cc2)cc1`, the T/C reads like this: under setting [1], 100 % of control; under setting [2], 96 % of control; (dose: 100.0 mg/kg/injection, schedule: Q04DX003 (ip), vehicle: Klucel (hydroxypropylcellulose) (HPC)) 100 % of control; under setting [3], 95 % of control; under setting [4], 93 % of control; (dose: 200.0 mg/kg/injection, schedule: Q04DX003 (ip), vehicle: Klucel (hydroxypropylcellulose) (HPC)) 98 % of control. For the same molecule, the T/C under setting [5] was 92 % of control; the T/C under setting [6] is 104 % of control; the T/C (dose: 400.0 mg/kg/injection, schedule: Q04DX003 (ip), vehicle: Klucel (hydroxypropylcellulose) (HPC)) is 107 % of control.
For the molecule `CN(/C(N)=N/[N+](=O)[O-])c1cccnc1`, the T/C was 103 % of control (dose: 6.0 mg/kg/injection, schedule: Q04DX002 (ip), vehicle: Klucel (hydroxypropylcellulose) (HPC)); 103 % of control (dose: 12.0 mg/kg/injection, schedule: Q04DX002 (ip), vehicle: Klucel (hydroxypropylcellulose) (HPC)); 103 % of control (dose: 25.0 mg/kg/injection, schedule: Q04DX002 (ip), vehicle: Klucel (hydroxypropylcellulose) (HPC)); 103 % of control (dose: 50.0 mg/kg/injection, schedule: Q01DX009 (ip), vehicle: Klucel (hydroxypropylcellulose) (HPC)); 95 % of control (dose: 50.0 mg/kg/injection, schedule: Q04DX002 (ip), vehicle: Klucel (hydroxypropylcellulose) (HPC)); 107 % of control under setting [1]. The T/C under setting [2] is 91 % of control and 92 % of control.
Turning to `COc1cccc(CBr)c1-c1c(CBr)cccc1OC`, the T/C was 94 % of control under setting [2], 110 % of control under setting [4] and 94 % of control under setting [6].
`COc1ccc(C(=O)C(C)C(C)=N)c(OCc2ccccc2)c1OC` (configuration not stated): the T/C is, setting by setting: under setting [7], 95 % of control; under setting [8], 92 % of control; (dose: 400.0 mg/kg/injection, schedule: Q01DX001 (ip), vehicle: carboxymethylcellulose (CMC)) 92 % of control.
Turning to `O=C(Nc1ccccc1O)c1ccc(Cl)c(Cl)c1`, the T/C reads like this: under setting [1], 100 % of control; under setting [3], 107 % of control; under setting [5], 102 % of control.
As for `COc1ccc2nc(/N=C(/N)N=C(N)N)sc2c1`, the T/C was 100 % of control under setting [9], 97 % of control under setting [10] and 103 % of control under setting [11].
Turning to `C=CCCCCCCCCC(=O)NC/C(Br)=C/Br`, the T/C is, setting by setting: (dose: 75.0 mg/kg/injection, schedule: Q01DX009 (ip), vehicle: Klucel (hydroxypropylcellulose) (HPC)) 103 % of control; (dose: 150.0 mg/kg/injection, schedule: Q01DX009 (ip), vehicle: Klucel (hydroxypropylcellulose) (HPC)) 108 % of control; (dose: 300.0 mg/kg/injection, schedule: Q01DX009 (ip), vehicle: Klucel (hydroxypropylcellulose) (HPC)) 93 % of control.
`CCCCCCCCCCCCCCCCCCNC(=O)Nc1ccc(SC)cc1`: the T/C was 101 % of control under setting [2], 96 % of control under setting [4] and 101 % of control under setting [6].
In the case of `ClCCN(CC#CCCCC#CCN(CCCl)CCCl)CCCl`, the T/C under setting [12] is 168 % of control.
Take `CCCCSc1nc(=O)[nH]nc1SCc1ccccc1`: the T/C by setting is: under setting [12], 98 % of control; under setting [13], 93 % of control; under setting [14], 95 % of control.
Turning to `O=c1[nH]cc(Cc2ccc(O)cc2)c(=O)[nH]1`, the T/C by setting is: (dose: 50.0 mg/kg/injection, schedule: Q01DX005 (ip), vehicle: saline with Tween-80) 106 % of control; (dose: 100.0 mg/kg/injection, schedule: Q01DX005 (ip), vehicle: saline with Tween-80) 101 % of control; (dose: 200.0 mg/kg/injection, schedule: Q01DX005 (ip), vehicle: saline with Tween-80) 98 % of control; (dose: 400.0 mg/kg/injection, schedule: Q01DX005 (ip), vehicle: saline with Tween-80) 109 % of control.
For the molecule `CCCC(C(=O)OCCN1CCCC12CCCCC2)C1CCCC1` (configuration not stated), the T/C is 92 % of control (dose: 13.0 mg/kg/injection, schedule: Q01DX Z (ip), vehicle: methylcellulose (MC)); 91 % of control (dose: 20.0 mg/kg/injection, schedule: Q01DX Z (ip), vehicle: methylcellulose (MC)); 88 % of control (dose: 30.0 mg/kg/injection, schedule: Q01DX Z (ip), vehicle: methylcellulose (MC)).
As to `CC(C)(N)CCC(C)(C)NCCCN`, the T/C by setting is: (dose: 100.0 mg/kg/injection, schedule: Q01DX009 (ip), vehicle: water) 95 % of control; (dose: 100.0 mg/kg/injection, schedule: Q04DX003 (ip), vehicle: water) 100 % of control; (dose: 200.0 mg/kg/injection, schedule: Q01DX009 (ip), vehicle: water) 98 % of control; (dose: 200.0 mg/kg/injection, schedule: Q04DX003 (ip), vehicle: water) 106 % of control; (dose: 400.0 mg/kg/injection, schedule: Q04DX003 (ip), vehicle: water) 97 % of control.
As for `C=CCOP(=O)(OCC=C)c1ccccc1`, the T/C is, setting by setting: (dose: 55.0 mg/kg/injection, schedule: Q01DX Z (ip), vehicle: methylcellulose (MC)) 89 % of control; (dose: 83.0 mg/kg/injection, schedule: Q01DX Z (ip), vehicle: methylcellulose (MC)) 98 % of control; (dose: 125.0 mg/kg/injection, schedule: Q01DX Z (ip), vehicle: methylcellulose (MC)) 93 % of control.
Regarding `Cc1ccc(C(=O)Oc2ccc(N=C=S)cc2)cc1`, the T/C runs as follows: under setting [9], 88 % of control; under setting [10], 90 % of control; under setting [11], 87 % of control.
In the case of `c1ccn2nncc2c1`, the T/C runs as follows: under setting [7], 103 % of control; under setting [8], 90 % of control.
In the case of `Nc1ccc(I)cc1C(=O)O`, the T/C reads like this: (dose: 50.0 mg/kg/injection, schedule: Q01DX001 (ip), vehicle: saline) 103 % of control; under setting [12], 103 % of control; under setting [13], 101 % of control; under setting [14], 97 % of control.
